For data set [1], the target named is T1, GABA-A receptor; alpha-5/beta-3/gamma-2 (Homo sapiens, UniProt P18507+P28472+P31644).
T1 sequence (P18507 whole entry): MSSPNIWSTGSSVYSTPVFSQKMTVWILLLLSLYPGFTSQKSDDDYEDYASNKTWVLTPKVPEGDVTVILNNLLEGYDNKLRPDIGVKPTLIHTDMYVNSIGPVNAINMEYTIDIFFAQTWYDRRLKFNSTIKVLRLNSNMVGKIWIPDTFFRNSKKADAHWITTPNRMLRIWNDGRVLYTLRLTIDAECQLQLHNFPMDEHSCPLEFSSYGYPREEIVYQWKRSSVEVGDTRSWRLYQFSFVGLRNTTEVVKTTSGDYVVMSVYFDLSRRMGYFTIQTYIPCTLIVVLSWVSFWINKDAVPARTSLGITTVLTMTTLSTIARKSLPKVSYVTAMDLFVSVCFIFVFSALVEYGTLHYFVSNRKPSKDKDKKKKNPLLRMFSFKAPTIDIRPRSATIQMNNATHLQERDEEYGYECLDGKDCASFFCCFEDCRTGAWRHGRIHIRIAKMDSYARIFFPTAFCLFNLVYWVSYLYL
T1 sequence (P28472 whole entry): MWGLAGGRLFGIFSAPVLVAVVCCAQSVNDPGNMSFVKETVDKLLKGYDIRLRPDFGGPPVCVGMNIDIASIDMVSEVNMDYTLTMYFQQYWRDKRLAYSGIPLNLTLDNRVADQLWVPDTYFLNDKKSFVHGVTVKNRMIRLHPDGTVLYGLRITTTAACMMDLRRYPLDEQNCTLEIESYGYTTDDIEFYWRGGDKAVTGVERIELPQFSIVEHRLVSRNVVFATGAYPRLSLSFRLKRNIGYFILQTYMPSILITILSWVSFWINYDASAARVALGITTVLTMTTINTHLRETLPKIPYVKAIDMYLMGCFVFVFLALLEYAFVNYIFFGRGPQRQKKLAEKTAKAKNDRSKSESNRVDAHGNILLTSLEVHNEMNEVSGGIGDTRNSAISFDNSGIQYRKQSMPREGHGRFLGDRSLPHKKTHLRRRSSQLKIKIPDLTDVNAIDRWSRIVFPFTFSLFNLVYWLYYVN
T1 sequence (P31644 whole entry): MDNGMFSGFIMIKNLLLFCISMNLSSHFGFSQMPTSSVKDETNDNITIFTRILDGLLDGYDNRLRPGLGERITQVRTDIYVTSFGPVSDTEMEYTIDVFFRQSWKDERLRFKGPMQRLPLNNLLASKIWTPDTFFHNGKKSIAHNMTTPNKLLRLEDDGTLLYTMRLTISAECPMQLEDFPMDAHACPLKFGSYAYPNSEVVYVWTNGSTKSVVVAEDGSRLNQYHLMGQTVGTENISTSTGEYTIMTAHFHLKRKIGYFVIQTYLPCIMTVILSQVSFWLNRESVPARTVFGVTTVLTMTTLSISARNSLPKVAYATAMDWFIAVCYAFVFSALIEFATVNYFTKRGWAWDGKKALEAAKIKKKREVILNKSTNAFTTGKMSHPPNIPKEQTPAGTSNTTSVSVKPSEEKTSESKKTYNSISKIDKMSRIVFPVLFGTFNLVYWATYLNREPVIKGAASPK
Description: Binding affinity to GABAA alpha-5-beta-3-gamma-2 receptor

The nature of a further data set: in vitro. Particulars: PAMPA. In general terms: PAMPA measures passive passage across an artificial lipid membrane.
Data set [2] deals with Rattus norvegicus. In words: Inhibition of scopolamine-induced cognitive deficit in Wistar rat at 100 mg/kg, ip by passive avoidance test. In kind it is functional, organism-based. On the set-up: dose 100 mg/kg.
The nature of data set [3]: physchem.
The subject of data set [4] is Liver microsomes. Particulars: human.
Description: Clearance in human liver microsomes
Data set [5] in a line: physchem. The settings on record: buffer, pH 7.4.
Description: Lipophilicity, log Dof the compound at pH 7.4
Data set [6] deals with Liver microsomes. The settings on record: rat.
Description: Clearance in rat liver microsomes
For data set [7], the system named is Rattus norvegicus. Put plainly: Inhibition of scopolamine-induced cognitive deficit in Wistar rat at 3 mg/kg, ip by passive avoidance test. In kind it is functional, organism-based. On the set-up: dose 3 mg/kg.

Converted amounts (≈) assume the structure as drawn. The source made the active and inactive calls. The calls are words filed in the database; no cut-off is given here.

Description for in vitro: Membrane permeability by PAMPA

In general, Ki refers to a measure of affinity in units of concentration, obtained from inhibition or displacement. The low end stands for tighter binding, the high end for weaker binding. The compound `Cc1ncn2c1Cn1c(C)cnc1-c1cc(Br)ccc1-2` showed a Ki in data set [1] of 11.7 nM.

By Papp is commonly meant a coefficient for how fast a substance crosses the barrier. Low values mean slow passage, high ones fast passage. Usually solubility stands for the concentration that dissolves in the medium under given conditions. Low values mean little dissolved substance, high ones much dissolved substance. By logD is commonly meant the decadic logarithm of the distribution of all forms, ionised or not, between an organic phase and buffer at a given pH. High values mean a more lipophilic compound, low ones a more hydrophilic compound. Take `CCOC(=O)c1ncn2c1Cc1cnc(C)nc1-c1cc(Br)ccc1-2`: the Papp in “in vitro” is 3.6 ×10⁻⁶ cm/s. For the same compound, in the data set on Rattus norvegicus [2], the inhibition entry is “Active”. For the same compound, the Ki in data set [1] came out at 12.5 nM. Also, the concentration in solution in the data set “physchem [3]” (solubility) was 20 µg/mL (≈ 50.1 µM). In the data set with Liver microsomes [4], this compound yielded a CL of 4000 µL/min/mg. In addition, the logD in “physchem [5]” amounted to 2.68.

In data set [1], `Cc1cn2c(n1)-c1cc(Br)ccc1-n1cnc(C)c1C2` showed a Ki of 119 nM.

In turn, `CCOC(=O)c1ncn2c1Cn1c(Cc3ccccc3)nnc1-c1cc(OC)ccc1-2` registered a Ki in data set [1] of 22.9 nM.

`CCCc1ncc2c(n1)-c1ccccc1-n1cnc(C(=O)OCC)c1C2` came in with a Ki in data set [1] of 5.5 nM.

In turn, `N#Cc1ccc2c(c1)-c1nncn1Cc1c(Cl)ncn1-2` yielded a Ki in data set [1] of 25.3 nM.

In data set [1], `CCOC(=O)c1ncn2c1Cn1cnnc1-c1cc(Cl)ccc1-2` displayed a Ki of 1.2 nM.

As for `c1ccc2c(c1)-c1ncnn1Cc1cncn1-2`, the results for the CL in the data set on Liver microsomes [6] and with Liver microsomes [4] were 4000 µL/min/mg and 8000 µL/min/mg, respectively. Also, the Papp in “in vitro” came to 2.87 ×10⁻⁶ cm/s. The compound further displayed a Ki in data set [1] of 6.4 nM. The same compound gave a solubility in “physchem [3]” of 231 µg/mL (≈ 1030 µM). In addition, the logD in “physchem [5]” was determined as 0.73.

`CCOC(=O)c1ncn2c1Cn1cnnc1-c1ccccc1-2` displayed a Ki in data set [1] of 0.8 nM.

`Clc1ncn2c1Cc1cncnc1-c1ccccc1-2` had a Ki in data set [1] of 15.6 nM.

In “in vitro”, `CCOC(=O)c1ncn2c1Cn1ncnc1-c1cc(Cl)ccc1-2` returned a Papp of 5.59 ×10⁻⁶ cm/s. Moreover, the Ki in data set [1] stood at 0.2 nM. The same compound registered a solubility in “physchem [3]” of 15 µg/mL (≈ 45.5 µM). This compound came in with a logD in “physchem [5]” of 1.83.

In turn, `CCOC(=O)c1ncn2c1Cn1ncnc1-c1cc(Br)ccc1-2` had a Ki in data set [1] of 0.3 nM.

On to `CCOC(=O)c1ncn2c1Cc1cnc(C)nc1-c1cc(F)ccc1-2`, for which the Ki in data set [1] was found to be 4.6 nM.

Compound `CCOC(=O)c1ncn2c1Cn1c(Cc3ccccc3)nnc1-c1cc(Br)ccc1-2` registered a Ki in data set [1] of 19.1 nM.

As to `CCOC(=O)c1ncn2c1Cn1cnnc1-c1cc(OC)ccc1-2`, in the data set with Rattus norvegicus [7], the inhibition entry was “Active”. The Ki in data set [1] stood at 1.4 nM.

`CCOC(=O)c1ncn2c1Cn1c(-c3ccccc3)nnc1-c1cc(OC)ccc1-2` showed a Ki in data set [1] of 53.8 nM.

In data set [1], `Cc1ncn2c1Cn1cc(CN3CCCC3=O)nc1-c1cc(Br)ccc1-2` displayed a Ki of 1.6 nM.

On to `CCOC(=O)c1ncn2c1Cn1ncnc1-c1cc(C)ccc1-2`, for which, in data set [1], the affinity corresponds to a Ki of 0.5 nM.

`Brc1ccc2c(c1)-c1nncn1Cc1c(I)ncn1-2` displayed a Ki in data set [1] of 7.8 nM.

In data set [1], `Clc1ncn2c1Cn1cnnc1-c1cc(Br)ccc1-2` gave a Ki of 27.4 nM.

`CCOC(=O)c1ncn2c1Cc1cnc(C3CC3)nc1-c1ccccc1-2` yielded a Ki in data set [1] of 7.6 nM.

In the case of `Clc1ncn2c1Cn1nccc1-c1ccccc1-2`, the affinity in data set [1] corresponds to a Ki of 2 nM.

Regarding `c1ccc2c(c1)-c1ncncc1Cc1cncn1-2`, in data set [1], the affinity corresponds to a Ki of 410 nM.

As to `CCOC(=O)c1ncn2c1Cn1ncnc1-c1cc(NC(=O)C(C)C)ccc1-2`, in data set [1], the Ki was found to be 6.4 nM.

Compound `CCOC(=O)c1ncn2c1Cn1ncnc1-c1ccccc1-2` displayed a Ki in data set [1] of 0.2 nM.

Compound `Cc1ncn2c1Cn1ccnc1-c1cc(Br)ccc1-2` registered a Ki in data set [1] of 6.6 nM.

Take `Cc1ncn2c1Cn1nccc1-c1cc(Br)ccc1-2`: the Ki in data set [1] is 49.1 nM.

In the case of `CCOC(=O)c1ncn2c1Cc1cnc(C3CC3)nc1-c1cc(F)ccc1-2`, the Ki in data set [1] amounted to 7.8 nM.

In data set [1], `Cc1ncc2c(n1)-c1ccccc1-n1cnc(Cl)c1C2` gave a Ki of 15.6 nM.

In data set [1], `Clc1ncn2c1Cc1cncnc1-c1cc(Br)ccc1-2` had a Ki of 136 nM.

The compound `C#Cc1ccc2c(c1)-c1nc(C)ncc1Cc1c(Cl)ncn1-2` had an inhibitory constant (Ki) in data set [1] of 133 nM.

Consider `CCOC(=O)c1ncn2c1Cn1ncnc1-c1cc(OC)ccc1-2`, for which the affinity in data set [1] corresponds to a Ki of 0.2 nM.

Take `C#Cc1ccc2c(c1)-c1nncn1Cc1c(Cl)ncn1-2`: the affinity in data set [1] corresponds to a Ki of 33.6 nM.

Compound `CCOC(=O)c1ncn2c1Cn1cnnc1-c1cc(O)ccc1-2` had a Ki in data set [1] of 0.6 nM.

For `Cc1ncn2c1Cn1cnnc1-c1cc(Br)ccc1-2`, the inhibitory constant (Ki) in data set [1] came to 150 nM.

As to `C#Cc1ccc2c(c1)-c1ncnn1Cc1c(C(=O)OCC)ncn1-2`, in data set [1], the Ki came out at 0.6 nM.

In data set [1], `CCOC(=O)c1ncn2c1Cc1cnc(C(C)C)nc1-c1cc(F)ccc1-2` yielded an inhibitory constant (Ki) of 11.2 nM.

In data set [1], `CCOC(=O)c1ncn2c1Cn1c(C)nnc1-c1cc(OC)ccc1-2` returned a Ki of 14.5 nM.

In the case of `Cc1ncc2c(n1)-c1cc(Br)ccc1-n1cnc(Cl)c1C2`, the affinity in data set [1], expressed as Ki, was 61 nM.

Regarding `CCOC(=O)c1ncn2c1Cc1cnc(C(C)C)nc1-c1ccccc1-2`, the Ki in data set [1] came out at 8.9 nM.

For `CCOC(=O)c1ncn2c1Cc1cncnc1-c1cc(Br)ccc1-2`, the affinity in data set [1] corresponds to a Ki of 20.2 nM.

In data set [1], `CC(C)C(=O)c1ncn2c1Cn1cnnc1-c1cc(Br)ccc1-2` yielded a Ki of 55.5 nM.

In data set [1], `Cc1ncn2c1Cn1cc(CO)nc1-c1cc(Br)ccc1-2` came in with a Ki of 8.1 nM.

Regarding `CCOc1ncn2c1Cn1nccc1-c1cc(Cl)ccc1-2`, the Ki in data set [1] was found to be 1.4 nM.

As for `CCOC(=O)c1ncn2c1Cc1cnc(C)nc1-c1ccccc1-2`, the affinity in data set [1] corresponds to a Ki of 3.8 nM.

As to `CCOC(=O)c1ncn2c1Cn1ncnc1-c1cc(OC(F)(F)F)ccc1-2`, in data set [1], the Ki worked out at 0.8 nM.

In turn, `O=C(c1ncn2c1Cn1nccc1-c1ccccc1-2)C1CC1` showed a Ki in data set [1] of 1 nM.

As to `CCOC(=O)c1ncn2c1Cc1cncnc1-c1ccccc1-2`, in data set [1], the Ki was found to be 3.7 nM.

In turn, `CCOC(=O)c1ncn2c1Cn1cnnc1-c1cc(F)ccc1-2` registered a Ki in data set [1] of 1.7 nM.

In data set [1], `CCOc1ncn2c1Cn1nccc1-c1ccccc1-2` had a Ki of 0.2 nM.

Consider `C#Cc1ccc2c(c1)-c1nncn1Cc1c(C(=O)OCC)ncn1-2`, for which, in data set [1], the inhibition constant (Ki) turned out to be 2.3 nM.

The compound `C#Cc1ccc2c(c1)-c1nc(C)ncc1Cc1c(C(=O)OCC)ncn1-2` registered a Papp in the data set “in vitro” of 2.78 ×10⁻⁶ cm/s. This compound also had a Ki in data set [1] of 8.1 nM. Further, the solubility in “physchem [3]” was determined as 10 µg/mL (≈ 29 µM). The CL in the data set with Liver microsomes [4] was 8000 µL/min/mg. Also, in “physchem [5]”, the logD came to 2.68.

Compound `CCCc1ncc2c(n1)-c1cc(F)ccc1-n1cnc(C(=O)OCC)c1C2` displayed a Ki in data set [1] of 8 nM.

`CCOC(=O)c1cn2c(n1)-c1cc(Br)ccc1-n1cnc(C)c1C2`: the Ki in data set [1] amounted to 5.4 nM.

`C#Cc1ncn2c1Cn1cnnc1-c1cc(Br)ccc1-2`: the inhibition constant Ki in data set [1] is 7.8 nM.

Regarding `CCOC(=O)c1ncn2c1Cc1cnc(-c3ccccc3)nc1-c1ccccc1-2`, the Ki in data set [1] was 171 nM.

`CCOC(=O)c1ncn2c1Cn1cnnc1-c1cc(Br)ccc1-2` had a Ki in data set [1] of 0.6 nM.

`CCOC(=O)c1ncn2c1Cc1cnc(Cc3ccc(OC)cc3)nc1-c1ccccc1-2` displayed an inhibition constant (Ki) in data set [1] of 12.5 nM.

Compound `CCOC(=O)c1ncn2c1Cn1ncnc1-c1cc(C3CC3)ccc1-2` registered a Ki in data set [1] of 0.6 nM.

`Cc1ncn2c1Cn1nccc1-c1ccccc1-2` displayed an inhibitory constant (Ki) in data set [1] of 3 nM.

On to `CCOC(=O)c1ncn2c1Cn1cnnc1-c1cc(C)ccc1-2`, for which the Ki in data set [1] came to 2.1 nM.

Source of the values: ChEMBL document CHEMBL1156033, “Discovery of the imidazo[1,5-a][1,2,4]-triazolo[1,5-d][1,4]benzodiazepine scaffold as a novel, potent and selective GABA(A) alpha5 inverse agonist series” (Bioorg Med Chem Lett, 2009).
